Where two headings read alike, the source gives them in different places.

In one data set the test system is MCF-7 breast cell line. The data set can be described thus: MTT assay, anti-proliferative activity toward MCF-7. The format is cell-based. The note with it: Homo sapiens, MCF7. On the procedure:
. The developed compounds were evaluated in vitro using the MTT cell viability assay following the published techniques (Supplementary Data, page 42). […]
(§1) The 96 well tissue culture plate was seeded with 1 X 10^5 cells / ml (100 ul / well) and cultured at 37 degrees Celsius for 24 hours to form a full monolayer sheet. After forming a confluent sheet of cells, growth medium was decanted from 96 well micro titer plates, the cell monolayer was washed twice with wash media, and two-fold dilutions of the tested sample were prepared in RPMI medium with 2% serum (maintenance medium). In each well, 0.1 ml of each dilution was examined, with three wells serving as controls and receiving only maintenance media.
(§2) The plate was incubated at 37 degrees Celsius and then analyzed. Cells were examined for any physical evidence of toxicity, such as partial or total monolayer loss, rounding, shrinkage, or cell granulation. MTT solution (5mg/ml in PBS) was prepared (BIO BASIC CANADA INC), and 20ul MTT solution was added to each well. Shake the MTT into the medium for 5 minutes at 150rpm on a shaking table. Incubate for 4 hours (37°C, 5% CO2) to allow the MTT to be digested. Remove the media. (If required, dry plate on paper towels to remove residue. In 200ul DMSO, resuspend formazan (MTT metabolic product). Shake at 150rpm for 5 minutes to properly mix the formazan into the solvent. At 560nm, measure optical density and subtract background at 620nm. The optical density should be proportional to the number of cells. MCF-7 and MCF-10A cell lines were provided with 10% fetal bovine serum (FBS, Sigma-Aldrich, MO, USA). Data are presented as the mean of the IC50 values ± SD from three different experiments. […]
On the technique in general: Tetrazolium assays rely on reduction of a dye to a coloured formazan, in cell work by metabolically active cells.

For a further data set, the target named is VEGFR-2 (Homo sapiens, UniProt P35968). The data set can be described thus: In vitro VEGFR-2 kinase inhibition assay. It is filed as biochemical. The note with it: mean ± SD of three experiments.
The subject of a further data set is MCF-10A. The data set can be described thus: MTT assay, cytotoxicity toward MCF-10A. The format is cell-based. The note with it: Homo sapiens. On the procedure: The developed compounds were evaluated in vitro using the MTT cell viability assay following the published techniques (Supplementary Data, page 42). […]
as §1, §2

The subject of another data set is MCF-7 cell line. The note with it: cited from earlier work.
The mark [1] stands for this setting: MCF-7 cell line, MTT assay, mean ± SD of three experiments, read-out: IC50.
Setting [2] is: MTT assay, mean ± SD of three experiments, read-out: IC50.

Sequence of VEGFR-2 (P35968 20-1356): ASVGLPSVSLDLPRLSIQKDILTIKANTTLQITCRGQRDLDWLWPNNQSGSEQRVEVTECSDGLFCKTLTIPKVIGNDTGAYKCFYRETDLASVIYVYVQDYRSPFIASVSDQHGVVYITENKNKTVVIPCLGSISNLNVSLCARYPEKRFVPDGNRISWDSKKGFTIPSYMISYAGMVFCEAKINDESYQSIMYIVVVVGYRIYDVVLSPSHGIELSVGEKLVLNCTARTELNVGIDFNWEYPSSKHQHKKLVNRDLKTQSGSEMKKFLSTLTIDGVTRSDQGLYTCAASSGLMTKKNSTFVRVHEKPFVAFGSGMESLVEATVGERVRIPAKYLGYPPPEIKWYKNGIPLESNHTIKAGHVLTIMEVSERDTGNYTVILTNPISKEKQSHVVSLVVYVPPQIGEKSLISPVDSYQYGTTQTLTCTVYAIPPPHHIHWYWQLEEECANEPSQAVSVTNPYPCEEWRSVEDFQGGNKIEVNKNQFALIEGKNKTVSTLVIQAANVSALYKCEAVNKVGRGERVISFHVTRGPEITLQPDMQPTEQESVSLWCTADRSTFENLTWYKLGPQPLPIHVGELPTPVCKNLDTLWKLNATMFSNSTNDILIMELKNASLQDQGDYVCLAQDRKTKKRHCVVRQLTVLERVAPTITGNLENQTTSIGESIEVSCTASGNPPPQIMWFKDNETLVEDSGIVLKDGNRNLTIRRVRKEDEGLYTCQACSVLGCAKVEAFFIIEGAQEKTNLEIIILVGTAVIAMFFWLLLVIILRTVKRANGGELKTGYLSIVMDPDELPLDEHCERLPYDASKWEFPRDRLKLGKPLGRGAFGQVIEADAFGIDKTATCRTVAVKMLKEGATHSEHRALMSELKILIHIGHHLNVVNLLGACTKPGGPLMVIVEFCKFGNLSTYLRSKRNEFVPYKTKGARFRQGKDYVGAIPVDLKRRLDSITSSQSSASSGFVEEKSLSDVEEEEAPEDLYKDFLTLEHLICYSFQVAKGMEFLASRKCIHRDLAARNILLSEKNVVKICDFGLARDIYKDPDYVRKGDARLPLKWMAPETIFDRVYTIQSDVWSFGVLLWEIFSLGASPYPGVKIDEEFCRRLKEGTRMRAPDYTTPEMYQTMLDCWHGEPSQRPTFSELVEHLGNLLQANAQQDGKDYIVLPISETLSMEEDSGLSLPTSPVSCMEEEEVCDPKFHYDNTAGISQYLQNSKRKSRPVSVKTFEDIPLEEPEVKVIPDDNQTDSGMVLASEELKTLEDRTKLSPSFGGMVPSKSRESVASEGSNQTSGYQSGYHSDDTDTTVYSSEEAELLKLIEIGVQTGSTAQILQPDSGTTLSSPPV

Compound `Cc1nc2sccn2c1C(=O)NN=C1C(=O)Nc2ccccc21` [Compound 6a, 6-Methyl-N′-(2-oxoindolin-3-ylidene)imidazo[2,1-b]thiazole-5-carbohydrazide] returned a melting point above 300 °C. Further, the IC50 in the data set with MCF-7 breast cell line (setting [1]) was found to be 24 ± 0.67 µM.

Turning to `Cc1nc2sccn2c1C(=O)NN=C1C(=O)Nc2ccc(F)cc21` [Compound 6b, N′-(5-Fluoro-2-oxoindolin-3-ylidene)-6-methylimidazo[2,1-b]thiazole-5-carbohydrazide], the melting point was above 300 °C. Besides, in the data set on MCF-7 breast cell line (setting [1]), the IC50 came to 11.5 ± 0.52 µM. The compound also returned an IC50 against VEGFR-2 of 3.85 ± 0.15 µM. For the same compound, the IC50 with MCF-10A (setting [2]) turned out to be 125 ± 2.7 µM.

`Cc1nc2sccn2c1C(=O)NN=C1C(=O)Nc2ccc(Cl)cc21` [Compound 6c, N′-(5-Chloro-2-oxoindolin-3-ylidene)-6-methylimidazo[2,1-b]thiazole-5-carbohydrazide] registered a melting point of 292 to 293 °C. Also, the concentration for half-maximal inhibition (IC50) with MCF-7 breast cell line (setting [1]) was found to be 43.1 ± 3.69 µM.

`Cc1nc2sccn2c1C(=O)NN=C1C(=O)Nc2ccc(Br)cc21` [Compound 6d, N′-(5-Bromo-2-oxoindolin-3-ylidene)-6-methylimidazo[2,1-b]thiazole-5-carbohydrazide] yielded a melting point of 296 to 297 °C. Moreover, the IC50 in the data set on MCF-7 breast cell line (setting [1]) worked out at 22.8 ± 1.38 µM.

Compound `CCCN1C(=O)C(=NNC(=O)c2c(C)nc3sccn23)c2ccccc21` [Compound 6e, 6-Methyl-N′-(2-oxo-1-propylindolin-3-ylidene)imidazo[2,1-b]thiazole-5-carbohydrazide] came in with a melting point of 256 to 257 °C. For the same compound, the IC50 with MCF-7 breast cell line was found to be 61.4 ± 3.15 µM.

For `CCCN1C(=O)C(=NNC(=O)c2c(C)nc3sccn23)c2cc(F)ccc21` [Compound 6f, N′-(5-Fluoro-2-oxo-1-propylindolin-3-ylidene)-6-methylimidazo[2,1-b]thiazole-5-carbohydrazide], the melting point lay in the range of 243 to 244 °C. Besides, the IC50 in the data set with MCF-7 breast cell line came out at 82.5 ± 2.75 µM.

Turning to `CCCN1C(=O)C(=NNC(=O)c2c(C)nc3sccn23)c2cc(Cl)ccc21` [Compound 6g, N′-(5-Chloro-2-oxo-1-propylindolin-3-ylidene)-6-methylimidazo[2,1-b]thiazole-5-carbohydrazide], the melting point lay in the range of 254 to 255 °C. The same compound registered an IC50 in the data set on MCF-7 breast cell line of 52.5 ± 1.26 µM.

In turn, `CCCN1C(=O)C(=NNC(=O)c2c(C)nc3sccn23)c2cc(Br)ccc21` [Compound 6h, N′-(5-Bromo-2-oxo-1-propylindolin-3-ylidene)-6-methylimidazo[2,1-b]thiazole-5-carbohydrazide] showed a melting point of 261 to 262 °C. The same compound gave an IC50 with MCF-7 breast cell line of 74.3 ± 2.19 µM.

As to `CCCCN1C(=O)C(=NNC(=O)c2c(C)nc3sccn23)c2cc(F)ccc21` [Compound 6j, N′-(1-Butyl-5-fluoro-2-oxoindolin-3-ylidene)-6-methylimidazo[2,1-b]thiazole-5-carbohydrazide], the melting point was in the range of 237 to 238 °C. This compound also yielded a concentration for half-maximal inhibition (IC50) in the data set on MCF-7 breast cell line of 11.7 ± 0.52 µM. At VEGFR-2, this compound gave a half-maximal inhibitory concentration (IC50) of 1.51 ± 0.06 µM. Moreover, in the data set with MCF-10A, the half-inhibitory concentration (IC50) was found to be 47.7 ± 0.53 µM.

Compound `CCCCN1C(=O)C(=NNC(=O)c2c(C)nc3sccn23)c2cc(Cl)ccc21` [Compound 6k, N′-(1-Butyl-5-chloro-2-oxoindolin-3-ylidene)-6-methylimidazo[2,1-b]thiazole-5-carbohydrazide] gave a melting point of 224 to 225 °C. This compound also came in with an IC50 in the data set with MCF-7 breast cell line of 42.7 ± 2.01 µM.

The compound `CCCCN1C(=O)/C(=N\NC(=O)c2c(C)nc3sccn23)c2cc(Br)ccc21` [Compound 6l, N′-(5-Romo-1-butyl-2-oxoindolin-3-ylidene)-6-methylimidazo[2,1-b]thiazole-5-carbohydrazide] had a melting point of 237 to 238 °C. This compound displayed an IC50 in the data set with MCF-7 breast cell line of 52.6 ± 2.36 µM.

In turn, `Cc1nc2sccn2c1NC(=O)Nc1ccccc1` [Compound 8a, 1-(6-Methylimidazo[2,1-b]thiazol-5-yl)-3-phenylurea] gave a melting point of 287 to 288 °C. Moreover, in the data set on MCF-7 breast cell line (setting [1]), the 50% inhibitory concentration (IC50) was 110 ± 4.62 µM.

`Cc1ccc(NC(=O)Nc2c(C)nc3sccn23)cc1` [Compound 8b, 1-(6-Methylimidazo[2,1-b]thiazol-5-yl)-3-(p-tolyl)urea] showed a melting point of 282 to 283 °C. Also, in the data set with MCF-7 breast cell line (setting [1]), the IC50 turned out to be 115 ± 4.99 µM.

Compound `COc1ccc(NC(=O)Nc2c(C)nc3sccn23)cc1` [Compound 8c, 1-(4-Methoxyphenyl)-3-(6-methylimidazo[2,1-b]thiazol-5-yl)urea] came in with a melting point of 284 to 285 °C. Moreover, the IC50 in the data set with MCF-7 breast cell line (setting [1]) is 106 ± 5.32 µM.

`Cc1nc2sccn2c1NC(=O)Nc1ccc(F)cc1` [Compound 8d, 1-(4-Fluorophenyl)-3-(6-methylimidazo[2,1-b]thiazol-5-yl)urea] yielded a melting point of 281 to 282 °C. The half-inhibitory concentration (IC50) with MCF-7 breast cell line (setting [1]) came out at 72.3 ± 4.71 µM.

As to `Cc1nc2sccn2c1NC(=O)Nc1ccc(Cl)cc1` [Compound 8e, 1-(4-Chlorophenyl)-3-(6-methylimidazo[2,1-b]thiazol-5-yl)urea], the melting point is 285 to 286 °C. For the same compound, in the data set on MCF-7 breast cell line (setting [1]), the 50% inhibitory concentration (IC50) came out at 35.7 ± 3.32 µM.

The compound `Cc1nc2sccn2c1NC(=O)Nc1ccc(Br)cc1` [Compound 8f, 1-(4-Bromophenyl)-3-(6-methylimidazo[2,1-b]thiazol-5-yl)urea] registered a melting point of 288 to 289 °C. The IC50 in the data set with MCF-7 breast cell line (setting [1]) turned out to be 31.1 ± 2.47 µM.

For `Cc1nc2sccn2c1NC(=O)Nc1ccc(S(N)(=O)=O)cc1` [Compound 8g, 4-(3-(6-Methylimidazo[2,1-b]thiazol-5-yl)ureido)benzenesulfonamide], the melting point lay in the range of 283 to 284 °C. Also, the IC50 in the data set on MCF-7 breast cell line (setting [1]) turned out to be 41.6 ± 1.59 µM.

As to `COc1cc(C(=O)/C=C/c2c(C(F)(F)F)nc3sccn23)cc(OC)c1OC` [IX], in the data set on MCF-7 cell line (MCF-7 cell line), the IC50 is 0.794 µM.

As for `CNC(=O)c1cc(Oc2ccc(NC(=O)Nc3ccc(Cl)c(C(F)(F)F)c3)cc2)ccn1` [Sorafenib (I), Sorafenib, reference compound], the IC50 in the data set on MCF-7 breast cell line (setting [1]) is 7.55 ± 0.4 µM; in the data set with MCF-10A (setting [2]), 22.4 ± 1.29 µM.

With `COc1ccc(-c2nc(N/N=C3/C(=O)Nc4ccc(Cl)cc43)c3ccccc3n2)cc1OC` [VIII], the IC50 in the data set on MCF-7 cell line (MCF-7 cancerous cell line) is 2.1 µM.

In the case of `O=C1Nc2ccccc2/C1=N/N=C/c1ccc[nH]1` [VI], the IC50 in the data set with MCF-7 cell line (MCF-7 cancerous cell line) is 6.25 µM.

The IC50 is the midpoint of a concentration-inhibition curve. Broadly, the melting point is the temperature, or range, at which the solid turns liquid.

The record behind these values is publication PMC10892120, “Design, Synthesis and Biological Assessment of N′-(2-Oxoindolin-3-ylidene)-6-methylimidazo[2,1-b]thiazole-5-carbohydrazides as Potential Anti-Proliferative Agents toward MCF-7 Breast Cancer” (Pharmaceuticals, 2024).
